Reference: patent US10669284B2, “Fused thiazolopyrimidine derivatives as MNKS inhibitors” (LIFEARC, priority 2015, dated 2020)

Experiments:
[1] = system: monocytic cell line THP-1; settings: cited from earlier work
keratinocytes = settings: cited from earlier work
[2] = system: B16 melanoma lung metastases; settings: cited from earlier work
HCT116 xenograft = HCT116 xenograft models; cited from earlier work
[3] = system: eIF4E phosphorylation in normal mouse tissues and xenografted tumors; settings: after oral administration; cited from earlier work
[4] = system: phosphorylation of eIF4E at ser209 in MV4.11 cell line; experiment: MNK cellular activity phospho-eIF4E detection assay (Alphascreen Surefire); format: cell-based; settings: Homo sapiens; MV4.11 cell line, phospho-eIF4E (ser209) Alphascreen Surefire; read-out: P(IC50) elF4E (converted)
Summary of the method: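 AlphaScreen SureFire sandwich-immunoassay readout of phospho-eIF4E Ser209 in lysed MV4.11 cells; acceptor then donor beads, each 1.5 hr at room temperature. Signal normalised to untreated DMSO-only controls; duplicate curves, values averaged over at least 2 independent experiments.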

Full-length human MNK2 = target: T1, Full-length human MNK2 (Homo sapiens, UniProt Q9HBH9, T379D); experiment: MNK2 biochemical IC50 assay (Caliper Mobility Shift Assay); settings: read-out: P(IC50) MNK2 (converted)
T1 construct: GST (N); purchased Carna Biosciences 02-146; host or cells: baculovirus expression system
T1 sequence (Q9HBH9 whole entry T379D): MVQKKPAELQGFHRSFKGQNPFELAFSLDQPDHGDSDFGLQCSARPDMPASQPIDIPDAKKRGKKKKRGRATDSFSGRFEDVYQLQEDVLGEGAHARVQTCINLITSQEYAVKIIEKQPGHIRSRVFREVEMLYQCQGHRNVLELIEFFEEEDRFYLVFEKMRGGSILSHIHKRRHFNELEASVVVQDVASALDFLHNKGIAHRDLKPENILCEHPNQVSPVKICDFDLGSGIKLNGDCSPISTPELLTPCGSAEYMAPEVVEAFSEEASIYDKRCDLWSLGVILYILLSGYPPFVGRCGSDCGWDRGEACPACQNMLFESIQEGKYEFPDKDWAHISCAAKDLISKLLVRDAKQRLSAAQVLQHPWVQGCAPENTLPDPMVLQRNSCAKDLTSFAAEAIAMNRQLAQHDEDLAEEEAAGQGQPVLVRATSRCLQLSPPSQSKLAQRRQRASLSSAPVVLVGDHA

Full-length human MNK1 = target: T2, Full-length human MNK1 (Homo sapiens, UniProt Q9BUB5, T385D); experiment: MNK1 biochemical IC50 assay (Caliper Mobility Shift Assay); settings: read-out: P(IC50) MNK1 (converted)
T2 construct: GST (N); purchased Carna Biosciences 02-145; host or cells: baculovirus expression system
T2 sequence (Q9BUB5 1-424 isoform Q9BUB5-2 T344D): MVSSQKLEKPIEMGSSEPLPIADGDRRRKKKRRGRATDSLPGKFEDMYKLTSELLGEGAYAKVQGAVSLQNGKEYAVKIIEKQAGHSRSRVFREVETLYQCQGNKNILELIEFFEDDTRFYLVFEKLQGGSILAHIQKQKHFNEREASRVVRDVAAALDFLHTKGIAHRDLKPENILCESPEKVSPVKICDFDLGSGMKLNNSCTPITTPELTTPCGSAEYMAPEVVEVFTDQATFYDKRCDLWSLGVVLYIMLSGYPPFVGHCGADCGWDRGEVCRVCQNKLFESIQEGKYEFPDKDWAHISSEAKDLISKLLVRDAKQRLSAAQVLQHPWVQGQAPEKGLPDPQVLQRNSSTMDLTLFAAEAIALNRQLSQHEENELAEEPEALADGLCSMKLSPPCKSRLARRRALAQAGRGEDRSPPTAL

**Q.** For `Nc1ncnc2n[nH]c(Nc3ccc(F)cc3)c12` [CGP57380], which “block of release of IL-1β and IL-8 induced by Shiga toxin” value [1] is on record?
**A.** The value was 73-96%.

**Q.** And the TNF-production (keratinocytes)?
**A.** Its TNF-production is “reduced TNF-production”.

**Q.** And the “expression of IL-1β and IL-6” value (keratinocytes)?
**A.** The value was “decreased expression”.

**Q.** For `CC(=O)C1=C(O)C=C2Oc3c(C(N)=O)c(O)cc(O)c3[C@]2(C)C1=O` [cercosporamide], which “outgrowth of lung metastases” value [2] is on record?
**A.** Its value is “suppressing the outgrowth”.

**Q.** And the tumor growth (HCT116 xenograft)?
**A.** The tumor growth was “reducing tumor growth”.

**Q.** And the “time to effective block of eIF4E phosphorylation” value [3]?
**A.** Its value is at most 30 min.

**Q.** With `CN(C)CCCNC(=O)c1nc2c(Nc3cccc4c3OCC4)ncnc2s1` [Example 26, 7-(2,3-Dihydrobenzofuran-7-ylamino)-N-[3-(dimethylamino)propyl]thiazolo[5,4-d]pyrimidine-2-carboxamide] as the molecule, how does the IC50 [4] read?
**A.** Its IC50 is 1000 nM.

**Q.** What about the IC50 (Full-length human MNK2) of the same molecule?
**A.** Its IC50 is 1580 nM.

**Q.** What about the IC50 (Full-length human MNK1) of the same molecule?
**A.** The IC50 was 1580 nM.

**Q.** For `Fc1ccc2c(c1)CCN2c1ncnc2scnc12` [Example 171, 7-(5-Fluoroindolin-1-yl)thiazolo[5,4-d]pyrimidine], which IC50 [4] is on record?
**A.** The IC50 was 251 nM.

**Q.** What about the IC50 (Full-length human MNK2) of the same molecule?
**A.** Its IC50 is 63.1 nM.

**Q.** And the IC50 (Full-length human MNK1)?
**A.** The IC50 was 79.4 nM.

**Q.** Which IC50 [4] does the source give for `CC(C)Oc1cc(F)ccc1Nc1ncnc2sc(C(=O)NC3CCN(C)CC3)nc12` [Example 32, 7-{[4-fluoro-2-(propan-2-yloxy)phenyl]amino}-N-(1-methylpiperidin-4-yl)[1,3]thiazolo[5,4-d]pyrimidine-2-carboxamide] here?
**A.** Its IC50 is 39.8 nM.

**Q.** What about the IC50 (Full-length human MNK2) of the same molecule?
**A.** Its IC50 is 39.8 nM.

**Q.** And the IC50 (Full-length human MNK1)?
**A.** Its IC50 is 50.1 nM.

**Q.** With `CC1CN(c2ncnc3sc(C(=O)NC4CCN(C)CC4)nc23)c2ccccc21` (stereo not drawn) [Example 126, 7-(3-Methylindolin-1-yl)-N-(1-methyl-4-piperidyl)thiazolo[5,4-d]pyrimidine-2-carboxamide] as the molecule, how does the IC50 [4] read?
**A.** The IC50 was 3.98 nM.

**Q.** What about the IC50 (Full-length human MNK2) of the same molecule?
**A.** Its IC50 is 6.31 nM.

**Q.** And the IC50 (Full-length human MNK1)?
**A.** Its IC50 is 3.98 nM.

**Q.** Which results are given for `COCCCNC(=O)c1nc2c(N3CC(CCN)c4ccccc43)ncnc2s1` (stereo not drawn) [Example 166, 7-[3-(2-amino-ethyl)indolin-1-yl]-N-(3-methoxypropyl) thiazolo[5,4-d]pyrimidine-2-carboxamide]?
**A.** IC50 [4]: 3.98 nM; IC50 (Full-length human MNK2): 5.01 nM; IC50 (Full-length human MNK1): 5.01 nM

**Q.** For `CC(C)Oc1cc(F)ccc1Nc1ncnc2scnc12` [Example 47, N-[4-fluoro-2-(propan-2-yloxy)phenyl][1,3]thiazolo[5,4-d]pyrimidin-7-amine], which IC50 [4] is on record?
**A.** The IC50 was 126 nM.

**Q.** What about the IC50 (Full-length human MNK2) of the same molecule?
**A.** The IC50 was 200 nM.

**Q.** And the IC50 (Full-length human MNK1)?
**A.** Its IC50 is 251 nM.

**Q.** For `O=C(NC1CCOCC1)c1nc2c(N3CC(CCN4CCOCC4)c4cc(F)ccc43)ncnc2s1` (stereo not drawn) [Example 151, 7-[5-fluoro-3-(2-morpholinoethyl)indolin-1-yl]-N-tetrahydropyran-4-yl-thiazolo[5,4-d]pyrimidine-2-carboxamide], which IC50 [4] is on record?
**A.** The IC50 was 31.6 nM.

**Q.** What about the IC50 (Full-length human MNK2) of the same molecule?
**A.** Its IC50 is 100 nM.

**Q.** And the IC50 (Full-length human MNK1)?
**A.** The IC50 was 100 nM.

**Q.** For `CNCCCNC(=O)c1nc2c(N3CCc4cc(F)ccc43)ncnc2s1` [Example 72, 7-(5-fluoroindolin-1-yl)-N-[3-(methylamino)propyl]thiazolo[5,4-d]pyrimidine-2-carboxamide], which IC50 [4] is on record?
**A.** The IC50 was 5.01 nM.

**Q.** And the IC50 (Full-length human MNK2)?
**A.** Its IC50 is 5.01 nM.

**Q.** What about the IC50 (Full-length human MNK1) of the same molecule?
**A.** Its IC50 is 5.01 nM.

**Q.** With `CN1CCN(CCC2CN(c3ncnc4sc(C(=O)NC5CCOCC5)nc34)c3ccccc32)CC1` (stereo not drawn) [Example 155, 7-[3-[2-(4-methylpiperazin-1-yl)ethyl]indolin-1-yl]-N-tetrahydropyran-4-yl-thiazolo[5,4-d]pyrimidine-2-carboxamide] as the molecule, how does the IC50 [4] read?
**A.** Its IC50 is 50.1 nM.

**Q.** And the IC50 (Full-length human MNK2)?
**A.** Its IC50 is 79.4 nM.

**Q.** And the IC50 (Full-length human MNK1)?
**A.** Its IC50 is 126 nM.
